These results are taken from ChEMBL document CHEMBL1147530, “Antimalarial activities of (+)-deoxoartemisitene and its novel C-11, 13 derivatives” (Bioorg Med Chem Lett, 2004).

Experiment [1] concerns Plasmodium falciparum. The experiment is described as follows: In vitro antimalarial activity against chloroquine-resistant Plasmodium falciparum K1. It is filed as functional, organism-based.
Experiment [2] has as its system Plasmodium falciparum. The experiment is described as follows: In vitro antimalarial activity against chloroquine-sensitive Plasmodium falciparum 3D7. It is filed as functional, organism-based.

A word on the IC50: it is the point on the concentration scale where inhibition reaches its midpoint. Higher therefore signals weaker potency.

In brackets after ≈: the same amount, converted by molar mass.

As to `C=C1CO[C@@H]2O[C@]3(C)CC[C@H]4[C@H](C)CC[C@@H]1[C@@]24OO3`, the IC50 in the experiment with Plasmodium falciparum [1] and with Plasmodium falciparum [2] was 0.02 µg/mL (≈ 0.0751 µM) each time.

Take `C[C@@H]1CC[C@H]2[C@@H](C=O)CO[C@@H]3O[C@]4(C)CC[C@@H]1[C@]32OO4`: the IC50 in the experiment with Plasmodium falciparum [1] was found to be 3.01 µg/mL (≈ 10.7 µM); in the experiment with Plasmodium falciparum [2] it was 0.12 µg/mL (≈ 0.425 µM).

Take `C[C@@H]1CC[C@H]2[C@@H](C(=O)O)CO[C@@H]3O[C@]4(C)CC[C@@H]1[C@]32OO4`: the IC50 was 0.65 µg/mL (≈ 2.18 µM) with Plasmodium falciparum [1] and 1.09 µg/mL (≈ 3.65 µM) with Plasmodium falciparum [2].

`C[C@@H]1CC[C@@H]2[C@]34OO[C@@](C)(CC[C@@H]13)O[C@H]4OC[C@]2(C)O`: the 50% inhibitory concentration (IC50) with Plasmodium falciparum [1] was 0.05 µg/mL (≈ 0.176 µM); in the experiment with Plasmodium falciparum [2] it was 0.07 µg/mL (≈ 0.246 µM).

Turning to `C[C@@H]1CC[C@H]2[C@@H](COC[C@H]3CO[C@@H]4O[C@]5(C)CC[C@H]6[C@H](C)CC[C@@H]3[C@@]46OO5)CO[C@@H]3O[C@@]4(C)CC[C@@H]1[C@]32OO4`, the figures for the IC50 with Plasmodium falciparum [1] and in the experiment with Plasmodium falciparum [2] were 0.02 µg/mL (≈ 0.0363 µM) and 0.04 µg/mL (≈ 0.0726 µM), respectively.

With `C[C@@H]1CC[C@H]2C(=O)CO[C@@H]3O[C@]4(C)CC[C@@H]1[C@]32OO4`, the concentration for half-maximal inhibition (IC50) with Plasmodium falciparum [1] was 0.006 µg/mL (≈ 0.0224 µM); in the experiment on Plasmodium falciparum [2], 0.02 µg/mL (≈ 0.0745 µM).

Consider `C[C@@H]1CC[C@H]2[C@@]3(CO[C@@H]4O[C@]5(C)CC[C@@H]1[C@]42OO5)CO3`, for which the IC50 in the experiment on Plasmodium falciparum [1] worked out at 0.01 µg/mL (≈ 0.0354 µM); in the experiment on Plasmodium falciparum [2], 0.03 µg/mL (≈ 0.106 µM).

For `C[C@@H]1CC[C@H]2[C@H](CO)CO[C@@H]3O[C@]4(C)CC[C@@H]1[C@]32OO4`, the results for the IC50 in the experiment with Plasmodium falciparum [1] and in the experiment with Plasmodium falciparum [2] were 0.05 µg/mL (≈ 0.176 µM) and 0.06 µg/mL (≈ 0.211 µM), respectively.

As for `C[C@@H]1CC[C@H]2[C@@H](CBr)CO[C@@H]3O[C@]4(C)CC[C@@H]1[C@]32OO4`, the results for the IC50 with Plasmodium falciparum [1] and in the experiment on Plasmodium falciparum [2] were 0.003 µg/mL (≈ 0.00864 µM) and 0.01 µg/mL (≈ 0.0288 µM), respectively.

For `C[C@@H]1CC[C@H]2[C@@H](COS(C)(=O)=O)CO[C@@H]3O[C@]4(C)CC[C@@H]1[C@]32OO4`, the IC50 in the experiment on Plasmodium falciparum [1] came out at 0.06 µg/mL (≈ 0.166 µM); in the experiment on Plasmodium falciparum [2], 0.09 µg/mL (≈ 0.248 µM).

For the molecule `C[C@@H]1CC[C@H]2[C@H](C=O)CO[C@@H]3O[C@]4(C)CC[C@@H]1[C@]32OO4`, the IC50 in the experiment on Plasmodium falciparum [1] is 0.46 µg/mL (≈ 1.63 µM); with Plasmodium falciparum [2], 2.02 µg/mL (≈ 7.15 µM).

On to `C[C@@H]1CC[C@H]2[C@@H](CO)CO[C@@H]3O[C@]4(C)CC[C@@H]1[C@]32OO4`, for which the IC50 was 0.0006 µg/mL (≈ 0.00211 µM) in the experiment on Plasmodium falciparum [1] and less than 0.0001 µg/mL with Plasmodium falciparum [2].

Take `Cc1ccc(S(=O)(=O)OC[C@H]2CO[C@@H]3O[C@]4(C)CC[C@H]5[C@H](C)CC[C@@H]2[C@@]35OO4)cc1`: the IC50 is 0.05 µg/mL (≈ 0.114 µM) with Plasmodium falciparum [1] and 0.3 µg/mL (≈ 0.684 µM) in the experiment on Plasmodium falciparum [2].

Turning to `C[C@@H]1CC[C@H]2[C@H](CBr)CO[C@@H]3O[C@]4(C)CC[C@@H]1[C@]32OO4`, the IC50 in the experiment with Plasmodium falciparum [1] is less than 0.0001 µg/mL; in the experiment with Plasmodium falciparum [2] it was 0.0002 µg/mL (≈ 0.000576 µM).

On to `C[C@@H]1CC[C@H]2[C@@H](C)C(=O)O[C@@H]3O[C@@]4(C)CC[C@@H]1[C@]32OO4` [ARTEMISININ], for which the IC50 with Plasmodium falciparum [1] turned out to be 0.002 µg/mL (≈ 0.00708 µM); with Plasmodium falciparum [2], 0.01 µg/mL (≈ 0.0354 µM).

`CCO[C@H]1O[C@@H]2O[C@@]3(C)CC[C@H]4[C@H](C)CC[C@@H]([C@H]1C)[C@@]24OO3` [ARTEMOTIL]: the IC50 in the experiment on Plasmodium falciparum [1] and with Plasmodium falciparum [2] was less than 0.0001 µg/mL in each case.

As to `C[C@H]1[C@H](OC(=O)CCC(=O)O)O[C@@H]2O[C@@]3(C)CC[C@H]4[C@H](C)CC[C@@H]1[C@@]24OO3` [ARTESUNATE], the 50% inhibitory concentration (IC50) turned out to be 0.0006 µg/mL (≈ 0.00156 µM) with Plasmodium falciparum [1] and 0.0002 µg/mL (≈ 0.00052 µM) in the experiment on Plasmodium falciparum [2].
